Reference: US8796327B2, “Method for inhibiting production of cytokines of T helper cell type II and/or inhibiting production of chemokines using brazilin” (China Medical University, priority 2010, dated 2014)

Experiments:
[1] = system: IL-4; experiment: ELISA of IL-4 in supernatant of EL-4 T lymphoma cells; assay type: cell-based, mouse; details: EL-4 cells, no PMA + cAMP
[2] = system: IL-5; experiment: ELISA of IL-5 in bronochial alveolar lavage fluid, mice with asthma (OVA); assay type: in vivo, BALB/c mice; details: for IL-5 concentration (pico-gram/ml): i.p. or i.t., OVA-sensitized BALB/c mice
Description: (§1) In Example 2, mice with asthma were used to conduct in vivo experiments, and ovalbumin (OVA) was used as an allergen.
(§2) The mice were sensitized (or challenged) according to the steps shown in FIG. 9 (see Lee et al., Lentiviral-mediated GATA-3 RNAi decreases allergic airway inflammation and hyperresponsiveness. Molecular Therapy, 2008; 16:60-65, which is incorporated herein in its entirety by reference). First, 50 μg OVA (using 2 mg alumina (Alum, Alumlmuject, Pierce Chemical, Rockford, Ill., USA) as an adjuvant) was injected into six to eight-week-old BALB/c female mice (from National Laboratory Animal Center, Taiwan) by intraperitoneal injection (i.p.). At 0th, 14th, and 28th day, the mice were injected with OVA at the same dosage. Before the administration of OVA at the forty-first and the forty-second days, different dosages of brazilin (high dose: 430 μg/mice; low dose: 43 μg/mice) were administrated to the mice by intraperitoneal injection (i.p.) or intratracheal instillation (i.t.). During the fortieth to the forty-second days, 100 μg OVA was dissolved in 40 μl PBS, and was administrated to the mice by intranasal instillation (i.n.) (once everyday, for three days). At the forty-third day, airway hyperresponsiveness of the mice was observed. […]
(§3) In Experiment D, after 24 hours from the last administration of OVA into the noses of the mice, the mice were sacrificed, and the blood was collected from the orbital cavities of the mice. […] Cells obtained after the centrifugation were re-suspended in a 1 ml HBSS buffer solution, and the total cell number was counted with a hemocytometer.
(§4) The bronochial alveolar lavage fluid collected in Experiment E was centrifuged at 4° C. and with a revolution speed of 400 g for 10 minutes. After the supernatant was collected, the expression of eotaxin, IL-4, IL-5, and IFN-γ was analyzed with an ELISA kit (R&D Systems, Inc., USA). […]

[3] = system: IL-4; experiment: ELISA of IL-4 in bronochial alveolar lavage fluid, mice with asthma (OVA); assay type: in vivo, BALB/c mice; details: for IL-4 concentration (pico-gram/ml): i.p. or i.t., OVA-sensitized BALB/c mice
Description: as §1, §2, §3, §4

## Oc1ccc2c(c1)OC[C@]1(O)Cc3cc(O)c(O)cc3[C@H]21 [brazilin]
[1]; brazilin 0.3 μM
  Concentration of IL-4 (pico-gram/ml): 2.569 ± 0.1160 pico-gram/ml
[1]; brazilin 1 μM
  Concentration of IL-4 (pico-gram/ml): 5.353 ± 1.276 pico-gram/ml
[1]; brazilin 3 μM
  Concentration of IL-4 (pico-gram/ml): 5.469 ± 0.1160 pico-gram/ml
[1]; brazilin 10 μM
  Concentration of IL-4 (pico-gram/ml): 7.093 ± 0.3480 pico-gram/ml
[1]; brazilin 30 μM
  Concentration of IL-4 (pico-gram/ml): 4.715 ± 0.9859 pico-gram/ml
[2]; BALB/c mice, result in words
  production of IL-5 cytokine: inhibited
[2]; High dose (430 μg/mice)
  IL-5 concentration (pico-gram/ml): 52.10 ± 6.223 pico-gram/ml
[2]; Low dose (43 μg/mice)
  IL-5 concentration (pico-gram/ml): 70.65 ± 6.510 pico-gram/ml
[3]; BALB/c mice, result in words
  production of IL-4 cytokine: inhibited
[3]; High dose (430 μg/mice)
  IL-4 concentration (pico-gram/ml): 23.01 ± 2.327 pico-gram/ml
[3]; Low dose (43 μg/mice)
  IL-4 concentration (pico-gram/ml): 36.76 ± 5.490 pico-gram/ml
